Experimental data taken from US9103820B2 (priority 2004, dated 2015).
Positions of bridges follow the written chain, without caps; N, C: chain ends. Non-standard residues stand in square brackets, D forms with d. Chains are numbered I, II in the order given. No end group written: not given here. ξ: configuration not given here. ξK = NCCCCC(N)C(=O)O; Ahx = NCCCCCC(=O)O

Columns and labels:
STX = conditions: read-out: affinity (Kd) for STX; cited from earlier work
[1] = molecular target: His-tagged Stx 2B-subunit (Escherichia phage 933W, UniProt P09386); experiment: biochemical; type: binding, Escherichia coli O157:H7
Sequence of His-tagged Stx 2B-subunit (P09386 20-89 limits assumed): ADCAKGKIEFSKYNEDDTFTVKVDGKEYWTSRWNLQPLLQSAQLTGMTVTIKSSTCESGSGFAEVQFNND

Row | Substance | Kd (STX) [mM] | Kd [1] [nM]
1 | Galα(1-4)-Galβ(1-4)-G1cβ1- [globo3 sugar] | 1 | 
2 | I: MAFRRNRRNA[Ahx][ξK][ξK] / II: MAFRRNRRNA[Ahx][ξK] / III: MAFRRNRRNA[Ahx] / IV: MAFRRNRRNA[Ahx] (amide I:12-IV:C, I:13-II:C, II:12-III:C) [FRRNRRN] |  | 1700
3 | I: MAKRRNPRRA[Ahx][ξK][ξK] / II: MAKRRNPRRA[Ahx][ξK] / III: MAKRRNPRRA[Ahx] / IV: MAKRRNPRRA[Ahx] (amide I:12-IV:C, I:13-II:C, II:12-III:C) [KRRNPRR] |  | 2100
4 | I: MAPPPRRRRA[Ahx][ξK][ξK] / II: MAPPPRRRRA[Ahx][ξK] / III: MAPPPRRRRA[Ahx] / IV: MAPPPRRRRA[Ahx] (amide I:12-IV:C, I:13-II:C, II:12-III:C) [PPPRRRR] |  | 3200
5 | I: MAPPRRNRRA[Ahx][ξK][ξK] / II: MAPPRRNRRA[Ahx][ξK] / III: MAPPRRNRRA[Ahx] / IV: MAPPRRNRRA[Ahx] (amide I:12-IV:C, I:13-II:C, II:12-III:C) [PPRRNRR] |  | 2700
